Where a name gives a salt, the structure may show the parent alone. Read-outs that look alike come from different tables or passages of the source.

The target in one data set is A1AR (Homo sapiens (Human), UniProt P30542). Briefly: FCM binding of fluorescent ligand to CHO cells expressing the A1AR. The method, then:
(§1) Chinese hamster ovary (CHO) cells without heterologous AR expression were grown in DMEM/F12 (1:1) medium with 10% FBS, 2 mM L-glutamine, 50 U/ml penicillin/streptomycin. CHO cells expressing the A1 or A3 AR and HEK293 cells expressing the A2A AR were grown in the same medium but in the presence of 500 μg/ml hygromycin B and 800 μg/ml of G418, respectively. Cells, used for FCM analysis, were grown in 6-well plates (approximately 400,000 cells/well) and incubated at 37° C. for 24 h in the presence of 5% CO2. When confluency of the cells was reached 80% (approximately 10^6 cells/well), medium was replaced with fresh medium and MRS5449 was added in the presence or absence of competitive antagonists, and cells were processed for FCM.
(§2) The intensity of fluorescence emission of each sample was measured by using FCM. Cell suspensions were vortexed briefly before analysis on a Becton and Dickinson FACSCalibur flow cytometer (BD, Franklin Lakes, N.J.) with excitation at 488 nm. Samples were maintained in the dark during the analysis to avoid photobleaching. MFIs were obtained in the FL-1 channel in log mode. Ten thousand events were analyzed per sample. Data were collected using Cell Quest Pro software (BD, Franklin Lakes, N.J.) and analyzed by Cyflogic v. 1.2.1 software (CyFlo, Ltd., Turku, Finland).

The next data set addresses hA2AAR (Homo sapiens (Human), UniProt P29274). Description: Radioligand membrane binding assay at hA2A AR ([3H]CGS21680). Particulars: Table 1; HEK293 cells expressing hA2AAR; [3H]CGS21680; read-out: A2A Ki. The method, then:
(§3) For cell cultures used in radioligand binding assays, after harvest and homogenization, the cells were centrifuged at 200×g for 10 min, and the pellet was re-suspended in 50 mM Tris-HCl buffer (pH 7.5), containing 10 mM MgCl2. The suspension was homogenized with an electric homogenizer for 10 s and was then re-centrifuged at 20,000×g for 20 min at 4° C. The resultant membrane pellets were resuspended in buffer in the presence of 3 units/ml adenosine deaminase, and the suspension was stored at −80° C. until the binding experiments. The protein concentration was measured using the Bradford assay. Radioligand membrane binding assays

Data set [1] has as its target T1, hA3AR (Homo sapiens (Human), UniProt P0DMS8). Briefly: Radioligand membrane binding assay at hA3AR ([125I]I-AB-MECA). The method, then: as §3
For data set [2], the target named is T1, hA3AR. Briefly: Fluorescent ligand binding by FCM in intact CHO cells expressing the hA3AR (preliminary, saturation, kinetics). The method, then:
In preliminary binding experiments of compounds 1-6 and MRS5449 were incubated with CHO cells expressing the hA3AR for 1 h at 37° C. in an atmosphere containing 5% CO2. The concentrations used were incubated with 1.5 μM 1, 5 μM 2, 1.5 μM 3, 10 μM 4, 20 μM 5, 15 μM 6, or 10 nM MRS5449. For further binding experiments with MRS5449, control CHO cells (CHO cells without heterologous receptor expression) and CHO cells expressing hA3AR were incubated with 10 nM MRS5449 for 3 h.
In saturation binding experiments, CHO cells expressing the hA3AR were incubated with concentrations of MRS5449 ranging from 2.5 nM to 250 nM for 1 h. To study binding kinetics of MRS5449, CHO cells expressing the hA3AR were incubated with 10 nM MRS5449 for different time intervals from 5 min to 3 h. The association and dissociation rate was measured as follows: 10 nM MRS5449 was added to CHO cells expressing the A3AR and measured total binding at different time intervals. After 90 min, dissociation was initiated by adding 10 μM of non-fluorescent A3AR antagonist MRS1220 and then measured the dissociation at different time intervals.
(§4) At the end of each time interval, the medium was removed and cells were washed three times with ice-cold DPBS. After washing, 1 ml 0.2% EDTA solution was added to each well, and cells were incubated at 37° C. for 7 min. Following cell detachment, 1 ml medium was added to each well to neutralize the EDTA. The cell suspensions were transferred to polystyrene round-bottom BD Falcon tubes (BD, Franklin Lakes, N.J.) and centrifuged for 5 min at 23° C. and 400×g. After centrifugation, the supernatant was discarded, and cells were washed with 3 ml PBS and centrifuged again at 23° C. and 400×g for 5 min. After discarding the supernatant, cells were suspended in 0.5 ml PBS and analyzed by FCM.
The mean fluorescence intensity (MFI) values of the standard particles were recorded under optimized instrument setting and converted into MESF values using the QuickCal program v. 2.3 (Bangs Laboratories, Inc., Fishers, Ind.). MFIs of receptor-bound fluorescent small molecules in this study were measured under exactly the same conditions and the assigned MESF values were extrapolated from the calibration curve.
as §2
Data analysis was performed with the Prism 5 (GraphPad, San Diego Calif.) software. The mean autofluorescence of CHO cells was measured in the absence of the fluorescent ligand. The mean fluorescence in the presence of fluorescent ligand was corrected by subtracting this value; Wood, J C S, Curr Protoc Cytom 2009; 1.4.1-1.4.14.

The next data set concerns the target hA1 AR (Homo sapiens (Human), UniProt P30542). Description: Radioligand membrane binding assay at hA1 AR ([3H]R-PIA). Particulars: Table 1; CHO cells expressing hA1AR; agonist radioligand [3H]R-PIA; read-out: A1 Ki. How it is done: as §3
A further data set concerns the target A2AAR (Homo sapiens (Human), UniProt P29274). Briefly: FCM binding of fluorescent ligand to HEK cells expressing the A2AAR. The method, then: as §1, §2
For a further data set, the target named is A3AR (Homo sapiens (Human), UniProt P0DMS8). Description: Cyclic AMP accumulation assay, antagonism of Cl-IB-MECA (Schild analysis). The class given is cell-based. Particulars: inhibition of forskolin-stimulated cyclic AMP by Cl-IB-MECA in CHO cells expressing the A3AR. How it is done:
CHO cells stably expressing the hA3AR were seeded in 24-well plates and incubated at 37° C. overnight. The medium was removed the following day and replaced with DMEM containing 50 mM HEPES, 10 μM rolipram, 3 units/ml adenosine deaminase (Worthington Biochemical Corp., Lakewood, N.J.), and increasing concentrations of agonists and incubated for […]. Forskolin (10 μM) was added and incubated for an additional 15 min. The medium was removed, and the cells were lysed with 200 μL of 0.1 M HCl. 100 μl of the HCl solution was used in the Sigma Direct cAMP Enzyme Immunoassay following the instructions provided with the kit. The OD values were measured with a SpectraMax M5 Microplate reader (Molecular Devices, Sunnyvale, Calif.) at 405 nm.

In data set [3] the target is T1, hA3AR. Briefly: FCM competitive binding in whole CHO cells using MRS5449 as tracer. Particulars: whole CHO cells expressing hA3AR; 5 nM MRS5449 tracer; 90 min at 37° C. How it is done: Total binding was measured in the absence of the competitor.
as §4
The intensity of fluorescence emission of each sample was measured by using FCM. […] Samples were maintained in the dark during the analysis to avoid photobleaching. MFIs were obtained in the FL-1 channel in log mode. Ten thousand events were analyzed per sample.
Data analysis was performed with the Prism 5 (GraphPad, San Diego Calif.) software. The mean autofluorescence of CHO cells was measured in the absence of the fluorescent ligand.

Data set [4] addresses T1, hA3AR. Particulars: Table 2; cell membrane preparations using [125I]-AB-MECA; reported literature values; read-out: hA3AR radioligand binding, Ki; cited from earlier work.

T1 sequence (P0DMS8 whole entry): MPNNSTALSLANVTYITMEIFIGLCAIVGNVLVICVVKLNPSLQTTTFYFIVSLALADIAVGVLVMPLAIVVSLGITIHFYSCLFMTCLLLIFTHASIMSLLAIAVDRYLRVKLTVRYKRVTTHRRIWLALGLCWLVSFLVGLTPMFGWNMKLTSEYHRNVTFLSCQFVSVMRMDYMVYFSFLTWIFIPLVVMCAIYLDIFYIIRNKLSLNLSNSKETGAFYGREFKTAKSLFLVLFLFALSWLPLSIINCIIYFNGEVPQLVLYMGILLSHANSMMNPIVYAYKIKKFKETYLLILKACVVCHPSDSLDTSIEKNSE
A3AR, sequence (P0DMS8 whole entry): as above
A2AAR, sequence (P29274 whole entry): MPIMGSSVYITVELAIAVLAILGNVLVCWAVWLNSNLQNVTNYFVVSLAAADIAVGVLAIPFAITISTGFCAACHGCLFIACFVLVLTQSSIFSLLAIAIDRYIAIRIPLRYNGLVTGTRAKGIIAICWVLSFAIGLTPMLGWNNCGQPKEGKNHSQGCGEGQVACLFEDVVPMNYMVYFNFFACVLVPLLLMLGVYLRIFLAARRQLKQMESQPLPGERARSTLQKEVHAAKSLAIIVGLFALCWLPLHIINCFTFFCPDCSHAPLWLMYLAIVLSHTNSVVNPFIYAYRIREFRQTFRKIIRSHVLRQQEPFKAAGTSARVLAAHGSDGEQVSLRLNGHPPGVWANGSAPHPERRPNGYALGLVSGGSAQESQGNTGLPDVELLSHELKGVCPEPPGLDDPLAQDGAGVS
hA2AAR, sequence (P29274 whole entry): as above
A1AR, sequence (P30542 whole entry): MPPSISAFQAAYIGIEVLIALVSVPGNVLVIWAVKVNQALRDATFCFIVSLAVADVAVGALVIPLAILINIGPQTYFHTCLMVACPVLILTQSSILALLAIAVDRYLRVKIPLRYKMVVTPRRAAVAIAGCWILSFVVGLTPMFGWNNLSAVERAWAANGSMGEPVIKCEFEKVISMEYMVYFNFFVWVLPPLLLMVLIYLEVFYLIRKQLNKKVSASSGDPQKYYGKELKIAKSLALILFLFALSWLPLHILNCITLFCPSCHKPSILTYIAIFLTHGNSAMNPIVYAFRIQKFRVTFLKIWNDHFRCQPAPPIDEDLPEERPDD
hA1 AR, sequence (P30542 whole entry): as above

Turning to “2-(6-Amino-3-iminio-4,5-disulfonato-3H-xanthen-9-yl)-5-((6-(4-(4-((9-chloro-2-(furan-2-yl)-[1,2,4]triazolo[1,5-c]quinazolin-5-yl)amino)-4-oxobutyl)-1H-1,2,3-triazol-1-yl)hexyl)carbamoyl)benzoate [Compound 9]”, the “binding to CHO cells expressing the A1AR compared with binding to the A3AR (expressed as 100%)” value on A1AR came out at 0.3%. Besides, the inhibition constant Ki at hA2AAR worked out at 73 nM; on hA3AR [1] (Table 1, CHO cells expressing hA3AR, [125I]I-AB-MECA, read-out: A3 Ki), 6.4 nM; at hA1 AR, 87 nM. Moreover, the “selectivity for the A3AR” value at hA3AR [1] (versus hA1 and hA2AARs, radioligand binding Ki) was “over 10 fold”. At hA3AR [2] (10 nM MRS5449, CHO cells expressing hA3AR), this molecule yielded a t1/2 for association of 53 min. Besides, the “Kd determined through association and dissociation kinetic experiments” value at hA3AR [2] (10 nM MRS5449, dissociation initiated after 90 min with 10 μM MRS1220) came out at 6.65 ± 0.55 nM. The “Nonspecific binding, % of total binding” value at hA3AR [2] (10 nM MRS5449, with 10 μM MRS1220 or 10 μM Cl-IB-MECA or in control CHO cells) is recorded as “less than 1%”. The Kd on hA3AR [2] (FCM saturation binding, […] to 250 nM, nonspecific with 10 μM MRS1220, read-out: Kd (equilibrium binding constant, saturation binding)) stood at 5.15 ± 1.11 nM. On hA3AR [2] (preliminary FCM experiments, hA3AR CHO cells, 1 h at 37° C., concentration about two times Ki), the “fluorescence emission (MFI) of cell-bound ligand” value is “sufficiently high MFI”. Further, the “binding to HEK cells expressing the A2AAR compared with binding to the A3AR (expressed as 100%)” value at A2AAR amounted to 0.5%. The Kb on A3AR amounted to 4.8 nM.

On to `CCC1CN2C(=O)N(C)c3nc(-c4cc(Cl)cc(Cl)c4Cl)[nH]c3C2=N1` (centres unmarked) [PSB-10, 8-ethyl-1,4,7,8-tetrahydro-4-methyl-2-(2,3,5-trichlorophenyl)-5H-imidazo[2,1-i]purin-5-one monohydrochloride], for which the figures for the Ki on hA3AR [3] and on hA3AR [4] were 9.54 ± 2.2 nM and 0.441 nM, respectively.

The values above are taken from patent US9227979B2, “Fluorescent antagonists of the A3 adenosine receptor” (The United States of America, as represented by the …, priority 2012, dated 2016).
